Results: US20040028753A1, “Inhalation of nitric oxide” (priority 2000, published 2004)

What was measured:
[1] = system: pigs with endotoxin-induced acute lung damage
Description: The Animal Research Ethics Committee of Uppsala University approved the study. Twentysix pigs of Swedish country breed, weighing 24-29 Kg, were used in the study. Before the transport from the farm, the pigs were sedated with a neuroleptic, azaperonum ([…], Janssen, Belgium), 40 mg intramuscularly (im). Anaesthesia was induced with atropine im (0.04 mg/Kg), tiletamin/zolazepam (ZOLETIL, Virbac Laboratories) (6 mg/Kg) and xylzry (ROMPUN, Bayer AG, Germany) (2.2 mg/Kg). After induction, a cannula was inserted in an ear vein and an opioid ([…], Antigen Pharmaceuticals Ltd, Roscrea, Ireland) (5 ug/Kg) was injected. Muscle relaxation was provided by pancuronium (PAVULON, Organon Technika AB, Göteborg, Sweden) ([…]). Anaesthesia was maintained with a continuous infusion of a hypnotic (chlomethiazole, HEMINEVRIN, Astra, Södertälje, Sweden) (400 mg/hour), pancuronium (2 mg/hour) and fentanyl (150 ug/hour) Repeated doses of fentanyl 0.2-0.5 mg i.v. were given as necessary. Depth of anaesthesia was considered to be adequate when skin incisions did riot cause any changes in heart rate or blood pressure. Pre-warmed (38° C.) isotonic saline 500 ml/hour was given for hydration. The animals were placed in the supine position (dorsal recumbency) for the remainder of the study.
A tracheotomy was performed after induction of anaesthesia and a cuffed tracheal tube (inner diameter 6 mm) was inserted. A volume-controlled ventilator (Siemens 900c) provided mechanical ventilation. Transducers built into the ventilator recorded airway pressure and minute ventilation. Respiratory frequency was maintained at 20 breaths per minute with tidal volume adjusted to maintain an end-tidal CO2 (PetCO2) between 36 and 41 mm Hg (4.8-5.4 kPa). The inspiratory time was 25%; an end-inspiratory pause 5% of the respiratory cycle was applied, as well as an end-expiratory pressure (PEEP) of 5-cm H2O. Inspired fraction of oxygen (FIO2) was 0.5.
A triple lumen balloon-tipped catheter (Swan Ganz no. 7F) was introduced via the right external jugular vein to the pulmonary artery for blood sampling and pressure recordings. […] The right carotid artery was cannulated for blood sampling and recording of arterial blood pressure.
The arterial, central venous and pulmonary artery catheters were connected to appropriate pressure transducers (Sorenson Transpac.Transducers, Abbott Critical Care Systems, Ill, USA) and pressures were recorded on a Marquette 7010 monitor (Marquette Electronics Inc., WI USA). Mean arterial pressure (MAP), mean pulmonary artery pressure (MPAP), heart rate (HR), central venous pressure (CVP), pulmonary capillary wedge pressure (PCWP) and cardiac output (Qt) were recorded. Airway pressures were registered from the ventilator. Vascular pressures were averaged over the whole respiratory cycle and the mid-thorax was used as the zero reference level.
Qt was measured.by means of thermodilution: 10 ml of ice cold isotonic saline were injected as a bolus and the Qt was computed (cardiac output computer Marquette 7010, Marquette Electronics Inc., WI, USA). At least three injections were given for each measurement and the mean was calculated. The injections were evenly distributed over the respiratory cycle. The expired minute volume was recorded at each measurement. Mixed venous and arterial blood samples were collected for blood gas analysis (ABL 3, Radiometer, Copenhagen, Denmark), oxygen saturation and hemoglobin concentration (OSM 3, Radiometer, Copenhagen, Denmark). Five-ml arterial blood were collected at the same time, the plasma was separated for biochemical analysis (see below).
Acute lung damage was induced by intravenous infusion of endotoxin 25 ug/kg/hour for 3 hours, and then maintained at 10 ug/kg/hour during the remaining experimental period.
Thirty minutes after surgery, baseline measurements of hemodynamics were made, blood samples were taken and blood was collected for subsequent biochemical analysis.

COX-1 = COX-1 expression in lung tissue by Western blotting; type: in vivo, pig; conditions: 3 and 5 hour INO trial, no-block group
Description: (§1) The lung tissue blocks were rinsed by PBS at 4° C. The total protein of lung tissue was extracted by homogenization (Ultra-Turrax, Jenke and Kunkel, IKA Labortechnik, Staufen, Germany) in 5 volumes of ice-cold 0.05M Tris buffer (pH 7.4) containing 0.5 mM phenylmethyl-sulfonylfluoride to inhibit proteolysis. The supernatant was collected and stored at −80° C. until the analysis. The concentration of whole protein in the supernatant was determined by the method of Lowry. Then the protein was fractionated by sodium dodecyl sulfate-polyacrylamide gel electrophoresis, and electrophoretically transferred to a nitrocellulose membrane. The blot was blocked with 5% BSA in TBS overnight at 4° C. and then incubated with anti-COX-1 (1:2500, Cayman Chemical, MI, USA, Ca 160108), COX-2 (1:1500, Cayman Chemical, MI, USA, Ca 160108) in TBS containing 1% BSA over night at 4° C. […] The blot was washed 5 times in TBS, and the antigen-antibody complex was detected on photographic film, using enhanced chemiluminescence reagent (Amersham, Arlington Heights, Ill., USA). All the experiments were carried out three times, and the bands from each experiment were analyzed using the program of National Institutes of Health (NIH) Image 1.6 C for statistical analysis.

COX-2 = COX-2 expression in lung tissue by Western blotting; type: in vivo, pig; conditions: no-block group
Description: as §1

TXB2 = experiment: Plasma TXB2 concentration by enzyme immunoassay; type: in vivo, pig
Description: The injections were evenly distributed over the respiratory cycle. The expired minute volume was recorded at each measurement.
Blood was collected in pre-chilled tubes containing EDTA (10 mM, final concentration), centrifuged (10 min 40C). Measurements of TXB2 concentration were performed using a commercially available enzyme immunoassay (Thromboxane B2 EIA kit Cayman Chemical, MI, USA, Ca 519031). Serum was collected from each test tube and stored at −70° C. until TXB2 measurements were performed. To ensure that all samples were free of organic solvents, the serum was purified before its addition to the assay well. Purification of TXB2 was performed as the Cayman Chemical Introduction, by first adding 10,000 cpm of tritium-labeled TXB2 (3H-TXB2) to each sample, and then 2 ml ethanol, followed by votex 4° C. for 5 minutes, and centrifugation at 1500 g for 10 minutes to remove precipitated proteins. The supernatant was collected and mixed with ultra-pure water. The sample was passed through a C-18 reverse phase cartridge. Ten percent of the eluate was removed for scintillation counting.
Enzyme immunoassays were performed in duplicate by mixing 50 μl purified sample with 50 μl tracer and 50 μl antiserum on micro-plates. After 18 hours incubation, 200 μl Ellmans-Reagents was added to start the enzymatic reaction, and the absorption of individual vials was measured 30 minutes later at 405 nm using a photometry micro-plate reader (Thermo Max, Molecular Devices). Concentrations of TXB2 in the samples were estimated from standard curves obtained by nonlinear regression to absorption of eight known TXB2 concentrations ranging from 7.5 to 1000 pg/ml. The intra-assay and inter-assay coefficients of variation were <10%. For further details, see the TXB2 Enzyme immunoassay Kit 519031 Cayman Chemical manual.

[2] = inhalation of 30 ppm NO after 3 hours of endotoxin infusion (first trial)
[3] = second trial, after 4 hours of endotoxin infusion, 30 ppm NO
[4] = second trial, five minutes after discontinuation of NO inhalation

| SMILES | time to MPAP increase after discontinuation of NO inhalation ([1]; first trial) [min] | PaO2 rebound on discontinuation of NO inhalation ([1]; first trial (3 hours of endotoxin infusion)) | decrease in MPAP [1, 2] [%] | increase in PaO2 [1, 2] [%] | increase in respiratory resistance during the endotoxin infusion ([1]; pig, in vivo) | MPAP response to NO inhalation in second trial compared with first trial one hour earlier [1, 3] | PaO2 response to NO inhalation in second trial compared with first trial one hour earlier [1, 3] | MPAP increase above the pre-NO level after discontinuation [1, 4] [%] | PaO2 after discontinuation relative to pre-NO level [1, 4] | effect of inhalation or discontinuation on COX-1 expression (COX-1) | effect of thirty minutes of INO on COX-2 expression (COX-2; 3 and 5 hour inhalation test) | COX-2 expression after the INO periods (COX-2) | plasma TXB2 level during NO inhalation (TXB2; first INO trial) | plasma TXB2 after INO withdrawal (TXB2; first INO trial, five minutes after withdrawal, p<0.05 in no-block group) | plasma TXB2 after second INO withdrawal (TXB2; second INO trial) | effect of pretreatment on MPAP ([1]; Diclofenac in saline 300 mg/Kg iv bolus 30 minutes before NO inhalation, endotoxin infusion) |
| --- | --- | --- | --- | --- | --- | --- | --- | --- | --- | --- | --- | --- | --- | --- | --- | --- |
| [N]=O [NO, nitric oxide] | ≤ 5 | did not show a clear rebound phenomenon | 28 | 54 | did not prevent or attenuate the rise | weaker | weaker, and no longer significant | 26 | fallen to below the pre-NO level | did not affect | had no effect | remained increased | did not change | increased | further increase | – |
| O=C(O)Cc1ccccc1Nc1c(Cl)cccc1Cl [Diclofenac] | – | – | – | – | – | – | – | – | – | – | – | – | – | – | – | lowered MPAP |
